Measured values as given in patent US20050043262A1, “Novel specific inhibitor of the cyclin kinase inhibitor p21Waf1/Cip1 and methods of using the inhibitor” (priority 2000, published 2005).

Experiments:
T47D cells = test: Nuclear morphology (Hoechst 33258) in T47D cells; assay type: cell-based, human; settings: serum stimulated 24 hours after lipofection
Protocol: Evaluation of Nuclear Morphology: Cells were seeded in 6-well culture dishes and treated with ODNs as described. The cells were then immersed in methanol for at least 10 min. Cells were stained in 1 μg/ml Hoechst 33258 in water with 1% nonfat dry milk. After staining for 8-10 min, the cells were rinsed in water and dried completely. Nuclear morphology was visually evaluated by fluorescence microscopy.
Apoptosis is the end result of an elaborate cascade of molecular events that ultimately result in programmed cell death; thus, a variety of tests are generally used to determine whether apoptosis is occurring. The methods to study apoptosis were employed: (a) assessment of nuclear morphology; (b) PARP cleavage; and (c) caspase-3 cleavage. Serum-starved cells were transfected with antisense p21 ODN or the control ODN, fixed, stained with Hoechst 33258, and examined under UV light. MCF7 and T47D cells were grown to confluence, serum starved for 24 hours, and lipofected with antisense p21 or control ODN. The cells were subsequently serum stimulated for another 24 hours, fixed, stained with Hoechst 33258, and examined under UV light at X400.

laminin = test: Laminin production and secretion (immunoblot of lysate and conditioned media); assay type: cell-based, rat; settings: VSM cells, 400 nM, TGF-β 0.1 to 10 ng/ml for 4 hours
Protocol: Western blots: Cells were grown to confluence in 6 cm culture dishes and serum deprived. After transfection and/or treatment with appropriate agonist, conditioned medium was removed and saved and the cells were washed with phosphate-buffered saline and lysed in lysis buffer. Both supernatant and cell lysate were normalized to the lysate protein concentrations and Western blotted as described (Weiss, R. H.; et al. Am. J. Physiol. 274: C1521-C1529; 1998).
The p21 influences on matrix protein secretion in VSM cells were determined. Levels of the matrix proteins laminin and fibronectin were examined in both TGF-β stimulated lysate and conditioned media of cells in which p21 expression had been attenuated. The cells were transfected with either antisense p21 (SEQ. ID NO.:1) (400 nM), or random sequence control (SEQ. ID NO.:3) (400 nM) oligodeoxynucleotide, and then stimulated with TGF-β at for 0.1 to 10 ng/ml for 4 hours. Conditioned media and cell lysate were collected, and both medium and lysate volumes were normalized for the protein content in total cell lysate to exclude any skewing of the data due to cell proliferation. The proteins were electrophoresed and immunoblotted with either fibronectin (after immunoprecipitation to eliminate extraneous bands which appeared in the absence of this procedure) or laminin antibody.

p27^Kip1 = test: p27Kip1 protein level by Western blot in A10 VSM cells; assay type: cell-based, rat; settings: PMA for 4 hours
Protocol: (§1) Western blots: Cells were grown to confluence in 6 cm culture dishes and serum deprived. After transfection and or treatment with appropriate agonist, the cells were washed with phosphate-buffered saline and lysed in lysis buffer and the supernatant was Western blotted as described (Weiss et al., 1998 Am. J. Physiol., 274, p. C1521-C1529).
To check for specificity of protein inhibition by the antisense p21^Waf1/Cip1 oligodeoxynucleotide (SEQ. ID NO.: 1), protein levels of p21^Waf1/Cip1 and p27^Kip1 after transfection with antisense p21^Waf1/Cip1 oligodeoxynucleotide (SEQ. ID NO.:1) were examined. In these experiments the ability of antisense oligodeoxynucleotides (SEQ. ID NO.:1) to inhibit maximally stimulated CKI expression (see FIG. 4) was assessed. The cells were stimulated with PMA for 4 hours at various times after overnight serum starvation.
At the times indicated after the overnight incubation (in hours), the medium was changed to quiescence medium and the cells were stimulated with PMA for 4 hours to show maximal p21^Waf1/Cip1 expression (FIG. 6a). The lysates were immunoblotted with (a) p21^Waf1/Cip1 or p27^Kip1 antibody or (b) α-actin antibody. […]

α-actin = test: alpha-actin protein level by Western blot in A10 VSM cells; assay type: cell-based, rat
Protocol: as §1
At the times indicated after the overnight incubation (in hours), the medium was changed to quiescence medium and the cells were stimulated with PMA for 4 hours to show maximal p21^Waf1/Cip1 expression (FIG. 6a). The lysates were immunoblotted with (a) p21^Waf1/Cip1 or p27^Kip1 antibody or (b) α-actin antibody. This is likely due to sequence similarity between the two genes, as p21^Waf1/Cip1 shares 43% sequence identity with p27^Kip1 in the cdk/cyclin binding site (residues 27-88), located in the conserved N terminus (Nomura et al., 1997 Gene, 191, p. 211-218; Toyoshima and Hunter, 1994 Cell, 78, p. 67-74).
Using a random sequence phosphorothioate oligodeoxynucleotide (SEQ. ID NO.:3) as a control, the effect of the antisense oligodeoxynucleotide to p21 (400 nM) on p21 and α-actin protein expression in A10 VSM cells, was examined. The lysates, normalized for protein content, were Western blotted with either p21 or α-actin antibody.

Rb = Rb hyperphosphorylation by Western blot in A431 cells; assay type: cell-based, human; settings: 400 nM, 10% serum 6 and 24 hours
Protocol: Upon activation by cyclin/cdk complexes, the Rb protein in turn becomes phosphorylated, causing it to release the transcription factors known as E2F, leading to early oncogene expression and ultimately to cell growth. An effect of p21^Waf1/Cip1 on cdk/Rb interaction would be evident by a change in phosphorylation state of the Rb protein: this property can be assessed by examining small changes in gel mobility of this protein. A431 cells were transfected with 400 nM antisense p21^Waf1/Cip1 oligodeoxynucleotide (SEQ. ID NO.:1) or with lipofectin only (no DNA). After overnight incubation in serum-free medium, the cells were stimulated with complete media for 6 or 24 hours, lysed, and the lysates were Western blotted with Rb antibody.

cyclin E/cdk 2 = test: Cyclin E immunoprecipitation / cdk 2 immunoblot in A10 VSM cells; assay type: cell-based, rat; settings: PDGF-BB 30 ng/ml
Protocol: Cells were transfected with p21^Waf1/Cip1 antisense (SEQ. ID NO.:1) or sense oligodeoxynucleotide (SEQ. ID NO.:2), allowed to grow overnight in serum-free media. After overnight incubation in serum-free medium, the cells were stimulated with PDGF-BB (30 ng/ml) for the times indicated. The cells were subsequently immunoprecipitated with either cyclin D1 or cyclin E and immunoblotted with cdk 4 or cdk 2, respectively.

Met-1 cells = settings: Weiss et al., Cancer Lett. 2003; cited from earlier work

Row | Substance | nuclear morphology (T47D cells) | production and secretion of laminin (laminin) | p27^Kip1 protein (p27^Kip1) | α-actin protein level (α-actin; 400 nM) | levels of α-actin (α-actin; identical conditions to p21 blot) | serum-induced Rb hyperphosphorylation versus no-DNA control (Rb) | cyclin E/cdk 2 interaction (cyclin E/cdk 2) | growth of tumors in a mouse model of breast cancer (Met-1 cells)
1 | 5′-ATC-CCC-AGC-CGG-TTC-TGA-CAT-3′ (antisense ATCCCCAGCCGGTTCTGACAT; listed as DNA, chemistry not fully specified) [antisense p21 ODN] | nuclear morphological changes consistent with apoptosis | – | – | – | – | – | – | –
2 | 5′-GACATCACCAGGATCGGACAT-3′ | – | markedly reduced | slight decrease | no effect | not altered | no difference | no change | attenuates growth of tumors
